pIC50: −log10 of the molar value.
Assays:
HCMV polymerase = target: T1, HCMV polymerase (Human cytomegalovirus, UniProt P08546); assay: HCMV polymerase assay (scintillation proximity assay, modified version); type: biochemical; settings: modified SPA assay; compounds diluted in 100% DMSO; 4.5 mM DTT
T1 construct: made in house; host or cells: recombinant baculovirus-infected SF-9 cells
Description: The HCMV polymerase assay is performed using a scintillation proximity assay (SPA) as described in several references, such as N. D. Cook, et al., Pharmaceutical Manufacturing International, pages 49-53 (1992); K. Takeuchi, Laboratory Practice, September issue (1992); U.S. Pat. No. 4,568,649 (1986); which are incorporated by reference herein. Reactions are performed in 96-well plates. The assay is conducted in 100 μl volume with 5.4 mM HEPES (pH 7.5), 11.7 mM KCl, 4.5 mM MgCl2, 0.36 mg/ml BSA, and 90 nM ^3H-dTTP. Assays are run with and without CHAPS, (3-[(3-cholamidopropyl)-dimethylammonio]-1-propane-sulfonate) at a final concentration of 2 mM. HCMV polymerase is diluted in enzyme dilution buffer containing 50% glycerol, 250 mM NaCl, 10 mM HEPES (pH 7.5), 100 μg/ml BSA, and 0.01% sodium azide. The HCMV polymerase, which is expressed in recombinant baculovirus-infected SF-9 cells and purified according to literature procedures, is added at 10% (or 10 μl) of the final reaction volume, i.e., 100 μl. Compounds are diluted in 50% DMSO and 10 μl are added to each well. Control wells contain an equivalent concentration of DMSO. Unless noted otherwise, reactions are initiated via the addition of 6 nM biotinylated poly(dA)-oligo(dT) template/primer to reaction mixtures containing the enzyme, substrate, and compounds of interest. Plates are incubated in a 25° C. or 37° C. H2O bath and terminated via the addition of 40 μl/reaction of 0.5 M EDTA (pH 8) per well. Reactions are terminated within the time-frame during which substrate incorporation is linear and varied depending upon the enzyme and conditions used, i.e., 30 min. for HCMV polymerase. Ten μl of streptavidin-SPA beads (20 mg/ml in PBS/10% glycerol) are added following termination of the reaction. Plates are incubated 10 min. at 37° C., then equilibrated to room temperature, and counted on a Packard Topcount. Linear regressions are performed and IC50's are calculated using computer software.
A modified version of the above HCMV polymerase assay is performed as described above, but with the following changes: Compounds are diluted in 100% DMSO until final dilution into assay buffer. In the previous assay, compounds are diluted in 50% DMSO. 4.5 mM dithiotherotol (DTT) is added to the polymerase buffer. […] All results are listed as Polymerase IC50 (μM) values. In Table 1, the term “nd” refers to activity data not determined.

HSV polymerase = HSV polymerase (Human herpesvirus 1, UniProt P04293); assay: HSV polymerase assay (Table 1); type: biochemical
VZV polymerase = VZV polymerase (Varicella-zoster virus, UniProt P09252); assay: VZV polymerase assay (Table 1); type: biochemical
Chain of VZV polymerase (P09252 whole entry): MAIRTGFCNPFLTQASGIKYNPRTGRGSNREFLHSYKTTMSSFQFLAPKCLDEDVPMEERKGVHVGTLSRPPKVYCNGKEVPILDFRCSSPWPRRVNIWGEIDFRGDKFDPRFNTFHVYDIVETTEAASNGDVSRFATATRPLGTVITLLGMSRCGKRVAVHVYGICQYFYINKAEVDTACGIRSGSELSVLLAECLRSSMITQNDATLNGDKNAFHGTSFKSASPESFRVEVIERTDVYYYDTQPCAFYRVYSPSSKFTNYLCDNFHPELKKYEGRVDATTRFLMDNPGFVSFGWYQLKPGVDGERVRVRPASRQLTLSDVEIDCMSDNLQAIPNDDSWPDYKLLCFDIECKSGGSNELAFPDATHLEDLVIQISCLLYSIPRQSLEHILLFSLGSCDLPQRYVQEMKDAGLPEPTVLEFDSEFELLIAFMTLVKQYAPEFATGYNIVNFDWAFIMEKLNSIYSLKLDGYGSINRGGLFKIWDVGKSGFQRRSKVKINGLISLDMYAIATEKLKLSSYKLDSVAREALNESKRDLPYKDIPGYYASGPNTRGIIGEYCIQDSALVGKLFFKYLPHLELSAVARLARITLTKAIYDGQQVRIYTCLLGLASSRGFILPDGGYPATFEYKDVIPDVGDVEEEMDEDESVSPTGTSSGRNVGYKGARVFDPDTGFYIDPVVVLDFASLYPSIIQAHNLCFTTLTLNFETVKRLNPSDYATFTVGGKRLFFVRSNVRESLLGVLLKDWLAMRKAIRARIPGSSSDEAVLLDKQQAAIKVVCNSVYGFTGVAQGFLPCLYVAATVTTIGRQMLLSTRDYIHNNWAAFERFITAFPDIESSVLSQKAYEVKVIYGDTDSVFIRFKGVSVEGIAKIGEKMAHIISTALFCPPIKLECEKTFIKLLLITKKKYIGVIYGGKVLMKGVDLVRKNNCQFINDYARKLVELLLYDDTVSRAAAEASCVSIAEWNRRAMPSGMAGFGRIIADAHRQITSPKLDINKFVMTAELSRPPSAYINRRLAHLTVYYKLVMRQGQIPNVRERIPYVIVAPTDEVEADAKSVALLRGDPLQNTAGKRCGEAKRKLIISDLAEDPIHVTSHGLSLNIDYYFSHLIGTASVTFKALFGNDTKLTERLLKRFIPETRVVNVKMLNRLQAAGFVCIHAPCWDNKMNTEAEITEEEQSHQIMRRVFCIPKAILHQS

T1 sequence (P08546 whole entry): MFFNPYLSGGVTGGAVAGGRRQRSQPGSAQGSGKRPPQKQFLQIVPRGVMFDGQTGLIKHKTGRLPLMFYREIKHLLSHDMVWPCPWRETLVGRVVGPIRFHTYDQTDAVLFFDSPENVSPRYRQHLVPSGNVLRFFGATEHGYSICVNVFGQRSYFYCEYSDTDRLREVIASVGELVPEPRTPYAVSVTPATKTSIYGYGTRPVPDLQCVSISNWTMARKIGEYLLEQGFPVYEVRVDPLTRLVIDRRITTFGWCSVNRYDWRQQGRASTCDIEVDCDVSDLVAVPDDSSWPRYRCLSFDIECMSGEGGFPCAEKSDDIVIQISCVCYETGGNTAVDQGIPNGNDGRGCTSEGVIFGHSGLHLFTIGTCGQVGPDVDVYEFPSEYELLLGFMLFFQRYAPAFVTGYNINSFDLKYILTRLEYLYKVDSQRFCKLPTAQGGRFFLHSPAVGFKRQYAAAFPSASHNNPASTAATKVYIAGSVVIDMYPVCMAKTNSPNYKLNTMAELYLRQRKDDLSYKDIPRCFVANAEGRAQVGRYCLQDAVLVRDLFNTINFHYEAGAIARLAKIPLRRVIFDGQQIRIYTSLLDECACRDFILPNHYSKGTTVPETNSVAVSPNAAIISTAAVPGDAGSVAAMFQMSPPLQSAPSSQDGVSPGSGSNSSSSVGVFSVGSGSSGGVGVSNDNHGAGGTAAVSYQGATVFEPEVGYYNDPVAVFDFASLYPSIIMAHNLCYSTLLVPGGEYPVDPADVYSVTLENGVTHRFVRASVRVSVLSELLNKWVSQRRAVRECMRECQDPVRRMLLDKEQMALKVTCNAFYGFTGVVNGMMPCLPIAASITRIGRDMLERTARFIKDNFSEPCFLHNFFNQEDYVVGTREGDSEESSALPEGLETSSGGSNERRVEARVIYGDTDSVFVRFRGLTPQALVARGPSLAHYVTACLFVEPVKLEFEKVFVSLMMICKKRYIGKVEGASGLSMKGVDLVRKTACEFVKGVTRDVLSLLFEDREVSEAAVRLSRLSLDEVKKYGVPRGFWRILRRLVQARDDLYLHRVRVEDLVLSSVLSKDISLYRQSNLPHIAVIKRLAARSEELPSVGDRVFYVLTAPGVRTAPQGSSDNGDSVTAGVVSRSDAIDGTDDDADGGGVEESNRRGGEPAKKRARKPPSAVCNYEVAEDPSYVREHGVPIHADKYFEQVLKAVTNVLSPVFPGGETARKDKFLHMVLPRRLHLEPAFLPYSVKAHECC
Chain of HSV polymerase (P04293 whole entry): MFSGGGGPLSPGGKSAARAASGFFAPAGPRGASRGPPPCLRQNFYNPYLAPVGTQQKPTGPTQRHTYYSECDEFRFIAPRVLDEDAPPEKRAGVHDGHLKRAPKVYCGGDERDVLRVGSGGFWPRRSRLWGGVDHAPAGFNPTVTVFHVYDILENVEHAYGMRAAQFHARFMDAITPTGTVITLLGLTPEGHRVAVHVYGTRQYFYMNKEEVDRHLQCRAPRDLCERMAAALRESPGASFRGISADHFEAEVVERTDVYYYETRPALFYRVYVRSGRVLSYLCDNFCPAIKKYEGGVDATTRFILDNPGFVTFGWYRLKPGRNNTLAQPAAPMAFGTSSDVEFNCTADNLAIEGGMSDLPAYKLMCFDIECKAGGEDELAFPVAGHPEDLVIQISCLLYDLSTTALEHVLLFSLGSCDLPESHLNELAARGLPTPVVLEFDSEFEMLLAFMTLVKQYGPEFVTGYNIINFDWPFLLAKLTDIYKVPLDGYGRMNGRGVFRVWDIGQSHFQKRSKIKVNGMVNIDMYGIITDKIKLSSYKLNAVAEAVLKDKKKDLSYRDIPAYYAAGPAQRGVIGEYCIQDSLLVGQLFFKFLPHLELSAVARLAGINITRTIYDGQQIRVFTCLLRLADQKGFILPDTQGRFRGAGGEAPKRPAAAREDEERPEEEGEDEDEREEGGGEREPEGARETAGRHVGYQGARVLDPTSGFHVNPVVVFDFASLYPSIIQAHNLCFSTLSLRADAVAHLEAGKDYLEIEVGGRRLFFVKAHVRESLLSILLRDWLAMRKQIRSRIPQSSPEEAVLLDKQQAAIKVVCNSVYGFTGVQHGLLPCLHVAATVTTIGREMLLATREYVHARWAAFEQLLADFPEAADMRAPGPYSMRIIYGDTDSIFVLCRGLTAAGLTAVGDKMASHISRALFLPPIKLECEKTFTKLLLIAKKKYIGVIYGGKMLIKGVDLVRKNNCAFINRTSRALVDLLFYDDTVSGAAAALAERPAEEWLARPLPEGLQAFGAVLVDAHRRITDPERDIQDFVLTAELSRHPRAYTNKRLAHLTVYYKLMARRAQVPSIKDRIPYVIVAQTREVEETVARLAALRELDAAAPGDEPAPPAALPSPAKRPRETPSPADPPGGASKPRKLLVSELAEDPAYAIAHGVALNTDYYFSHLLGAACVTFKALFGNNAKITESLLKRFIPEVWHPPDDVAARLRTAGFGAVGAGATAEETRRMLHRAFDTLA

| Compound | melting point [°C] | pIC50 (HCMV polymerase) | pIC50 (HSV polymerase) | pIC50 (VZV polymerase) |
| --- | --- | --- | --- | --- |
| Cn1nc(C(=O)NCc2ccc(Cl)cc2)c(=O)c2cc(I)ccc21 [Example 1, N-(4-chlorobenzyl)-6-iodo-1-methyl-4-oxo-1,4-dihydro-3-cinnolinecarboxamide] | 194 to 195 | 5.26 |  |  |
| Cn1nc(C(=O)NCc2ccc(Cl)cc2)c(=O)c2cc(C#CCO)ccc21 [Example 2, N-(4-chlorobenzyl)-6-(3-hydroxy-1-propynyl)-1-methyl-4-oxo-1,4-dihydro-3-cinnolinecarboxamide] | 229 to 231 | 5.57 | 5.77 | 5.96 |

Continued by rising pIC50 (HCMV polymerase), values first:

| melting point [°C] | pIC50 (HCMV polymerase) | pIC50 (HSV polymerase) | pIC50 (VZV polymerase) | Compound |
| --- | --- | --- | --- | --- |
| 203 to 205 | 4.78 |  |  | Cn1nc(C(=O)NCc2ccc(Cl)cc2)c(=O)c2cc(CO)ccc21 [Example 4, N-(4-chlorobenzyl)-6-(hydroxymethyl)-1-methyl-4-oxo-1,4-dihydro-3-cinnolinecarboxamide] |
| 227 to 229 | 5.01 |  |  | Cn1nc(C(=O)NCc2ccc(Cl)cc2)c(=O)c2cc(C#CCCO)ccc21 [Example 3, N-(4-chlorobenzyl)-6-(4-hydroxy-1-butynyl)-1-methyl-4-oxo-1,4-dihydro-3-cinnolinecarboxamide] |
| 190 to 192 | 5.92 |  |  | Cn1nc(C(=O)NCc2ccc(Cl)cc2)c(=O)c2cc(CN3CCOCC3)ccc21 [Example 5, N-(4-chlorobenzyl)-1-methyl-6-(4-morpholinylmethyl)-4-oxo-1,4-dihydro-3-cinnolinecarboxamide] |
